The values below come from patent US20250214942A1, “INHIBITORS OF RECEPTOR INTERACTING PROTEIN KINASE I FOR THE TREATMENT OF DISEASE” (Board of Regents, The University of Texas System, priority 2019, published 2025).

Sequence of RIPK1 (Q13546 1-327): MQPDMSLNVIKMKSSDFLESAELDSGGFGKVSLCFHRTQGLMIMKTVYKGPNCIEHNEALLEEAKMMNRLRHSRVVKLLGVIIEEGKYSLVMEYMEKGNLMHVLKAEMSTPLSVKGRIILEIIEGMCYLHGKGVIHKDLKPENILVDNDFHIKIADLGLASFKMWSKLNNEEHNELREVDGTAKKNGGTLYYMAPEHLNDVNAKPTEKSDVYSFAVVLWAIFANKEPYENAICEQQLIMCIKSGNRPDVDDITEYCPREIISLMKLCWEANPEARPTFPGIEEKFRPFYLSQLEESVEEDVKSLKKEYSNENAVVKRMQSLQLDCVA

One assay addresses RIPK1 (Homo sapiens (Human), UniProt Q13546). As to the kind of experiment: ADP-Glo kinase assay (RIPK1 activity, conversion of ATP to ADP). It counts as biochemical. The conditions noted are these: 5 nM RIPK1, 50 μM ATP, 6 h reaction; footnote symbol (a); read-out: RIPK1 Enzyme Avg IC50. On the procedure:
In order to measure RIPK1 activity the ADP-Glo kinase assay (Promega, Catalog #V7002) was used to measure the conversion of ATP to ADP. This enzymatic assay was performed in a 384-well white, Optiplate (Perkin Elmer, Catalog #6007299) with assay buffer consisting of 50 mM HEPES pH 7.5 (Gibco, Catalog #15630-080), 50 mM NaCl (Teknova, Catalog #S0252), 30 mM MgCl2 (Ambion, Catalog #AM9530G), 1 mM DTT (Santa Cruz Biotechnology, Catalog #sc-29089), 0.05% BSA (Sigma, Catalog #A3059-50G) and 0.02% CHAPS (Sigma, Catalog #C5070-5G). Stock solutions of the test compounds were prepared in 100% DMSO (Sigma, Catalog #D2650) and serially diluted 1:3 using 100% DMSO. Compounds were additionally diluted 1:40 in assay buffer, and 2 μL/well were transferred to the assay plate. 4 μL/well (final concentration of 5 nM) of RIPK1 protein (SignalChem, Catalog #R07-1IG-05) diluted in assay buffer and added to the assay plate followed by a 10 minute preincutation at rt. 4 μL/well of ATP (Promega, Catalog #V7002) (final concentration of 50 μM) diluted in assay buffer were then added to the assay plate followed by a 6 h reaction time. Final concentrations of RIPK1 and ATP refer to a 10 μL volume. Luminescence was measured using a BioTek Synergy™ NEO plate reader. IC50 values were calculated using a four-parameter logistic curve fit using Genedata Screener software.
Background: ADP-Glo first removes unused ATP, then detects ADP through luciferase.
In general, IC50 refers to the point on the concentration scale where inhibition reaches its midpoint. Take `Cc1cccc(C2CCCN2C(=O)C23CC(N4C(=O)CCC4=O)(C2)C3)c1` (centres unmarked) [Example 25, 1-(3-(2-(m-Tolyl)pyrrolidine-1-carbonyl)bicyclo[1.1.1]pentan-1-yl)pyrrolidine-2,5-dione]: the IC50 was more than 50000 nM. Turning to `COC(=O)C12CC(C(=O)N3CC[C@@H](Oc4cc(F)ccc4F)C3)(C1)C2` [Example 37, Methyl (R)-3-(3-(2,5-difluorophenoxy)pyrrolidine-1-carbonyl)-bicyclo[1.1.1]pentane-1-carboxylate], the IC50 is more than 50000 nM. For `O=C(N1CC[C@@H](Oc2cc(F)ccc2F)C1)C12CC(CO)(C1)C2` [Example 38, (R)-(3-(2,5-Difluorophenoxy)pyrrolidin-1-yl)(3-(hydroxymethyl)-bicyclo[1.1.1]pentan-1-yl)methanone], the IC50 is more than 50000 nM. Same read-out and setting: the value for `N#Cc1cc(OCC23CC(C(=O)N4CC[C@@H](Oc5cc(F)ccc5F)C4)(C2)C3)ncn1` [Example 39, (R)-6-((3-(3-(2,5-difluorophenoxy)pyrrolidine-1-carbonyl)-bicyclo[1.1.1]pentan-1-yl)methoxy)pyrimidine-4-carbonitrile] was more than 50000 nM.

Staying with this assay, now noted: 5 nM RIPK1, 50 μM ATP, 6 h reaction; read-out: RIPK1 Enzyme Avg IC50.
As to `COC(=O)C12CC(C(=O)N3N=CCC3c3cc(F)cc(F)c3)(C1)C2` (centres unmarked) [Example 1, Methyl 3-(5-(3,5-difluorophenyl)-4,5-dihydro-1H-pyrazole-1-carbonyl)bicyclo[1.1.1]pentane-1-carboxylate], the IC50 turned out to be 40 nM. In the case of `O=C(O)C12CC(C(=O)N3N=CCC3c3cc(F)cc(F)c3)(C1)C2` (centres unmarked) [Example 2, 3-(5-(3,5-Difluorophenyl)-4,5-dihydro-1H-pyrazole-1-carbonyl)-bicyclo[1.1.1]pentane-1-carboxylic acid], the IC50 turned out to be 21200 nM. Same read-out and setting: in the case of `CN(C)C(=O)C12CC(C(=O)N3N=CCC3c3cc(F)cc(F)c3)(C1)C2` (centres unmarked) [Example 10, 3-(5-(3,5-Difluorophenyl)-4,5-dihydro-1H-pyrazole-1-carbonyl)-N,N-dimethylbicyclo[1.1.1]pentane-1-carboxamide] it was 2910 nM; in that of `O=C(N1N=CCC1c1cc(F)cc(F)c1)C12CC(CN3CCOCC3)(C1)C2` (centres unmarked) [Example 13, (5-(3,5-Difluorophenyl)-4,5-dihydro-1H-pyrazol-1-yl)(3-(morpholinomethyl)bicyclo[1.1.1]pentan-1-yl)methanone], 1510 nM. As to `O=C(N1N=CCC1c1cc(F)cc(F)c1)C12CC(Cn3ncc4c(F)cncc43)(C1)C2` (centres unmarked) [Example 15, (5-(3,5-Difluorophenyl)-4,5-dihydro-1H-pyrazol-1-yl)(3-((4-fluoro-1H-pyrazolo[3,4-c]-pyridin-1-yl)methyl)bicyclo[1.1.1]pentan-1-yl)methanone], the IC50 amounted to 22 nM. As to `CP(C)(=O)c1cc(OCC23CC(C(=O)N4N=CCC4c4cc(F)cc(F)c4)(C2)C3)ncn1` (centres unmarked) [Example 17, (5-(3,5-Difluorophenyl)-4,5-dihydro-1H-pyrazol-1-yl)(3-(((6-(dimethylphosphoryl)pyrimidin-4-yl)oxy)methyl)bicyclo[1.1.1]pentan-1-yl)methanone], the IC50 amounted to 570 nM.

For the compound `O=C(N1N=CCC1c1cc(F)cc(F)c1)C12CC(Cc3nnn[nH]3)(C1)C2` (centres unmarked) [Example 19, (3-((1H-tetrazol-5-yl)methyl)bicyclo[1.1.1]pentan-1-yl)(5-(3,5-difluorophenyl)-4,5-dihydro-1H-pyrazol-1-yl)methanone], the IC50 was 363 nM.

As for `Cc1nnc(CC23CC(C(=O)N4N=CCC4c4cc(F)cc(F)c4)(C2)C3)o1` (centres unmarked) [Example 20, (5-(3,5-Difluorophenyl)-4,5-dihydro-1H-pyrazol-1-yl)(3-((5-methyl-1,3,4-oxadiazol-2-yl)methyl)bicyclo[1.1.1]pentan-1-yl)methanone], the IC50 was found to be 1110 nM.

Consider `O=C(N1CC(F)CC1c1cccc(F)c1)C12CC(CO)(C1)C2` (centres unmarked) [Example 24, (4-Fluoro-2-(3-fluorophenyl)pyrrolidin-1-yl)(3-(hydroxymethyl)bicyclo[1.1.1]pentan-1-yl)methanone], for which the IC50 was 38800 nM. As for `O=C(N1N=CCC1c1cc(F)cc(F)c1)C12CC(CN3C(=O)C(F)(F)c4ccccc43)(C1)C2` (centres unmarked) [Example 32, 1-((3-(5-(3,5-Difluorophenyl)-4,5-dihydro-1H-pyrazole-1-carbonyl)-bicyclo[1.1.1]pentan-1-yl)methyl)-3,3-difluoroindolin-2-one], the IC50 was 196 nM. On the same count and under the same terms, in the case of `N#Cc1cnn(CC23CC(C(=O)N4CC(F)CC4c4cccc(F)c4)(C2)C3)c1` (centres unmarked) [Example 33, 1-((3-(4-Fluoro-2-(3-fluorophenyl)pyrrolidine-1-carbonyl)-bicyclo[1.1.1]pentan-1-yl)methyl)-1H-pyrazole-4-carbonitrile] it was 466 nM; in that of `COC(=O)C12CC(C(=O)N3CC(F)CC3c3cccc(F)c3)(C1)C2` (centres unmarked) [Example 34, Methyl 3-(4-fluoro-2-(3-fluorophenyl)pyrrolidine-1-carbonyl)-bicyclo[1.1.1]pentane-1-carboxylate], 1070 nM. The same measure, in the same setting: the value for `COCC12CC(C(=O)N3CC(F)CC3c3cccc(F)c3)(C1)C2` (centres unmarked) [Example 35, (4-Fluoro-2-(3-fluorophenyl)pyrrolidin-1-yl)(3-(methoxymethyl)-bicyclo[1.1.1]pentan-1-yl)methanone] was 4630 nM; that for `N#Cc1ccn(CC23CC(C(=O)N4CC(F)CC4c4cccc(F)c4)(C2)C3)c(=O)c1` (centres unmarked) [Example 36, 1-((3-(4-Fluoro-2-(3-fluorophenyl)pyrrolidine-1-carbonyl)bicyclo[1.1.1]pentan-1-yl)methyl)-2-oxo-1,2-dihydropyridine-4-carbonitrile] was 19300 nM. Regarding `O=C(N1CC(F)CC1c1cccc(F)c1)C12CC(C(O)c3ccccc3)(C1)C2` (centres unmarked) [Example 40, (4-Fluoro-2-(3-fluorophenyl)pyrrolidin-1-yl)(3-(hydroxy(phenyl)methyl)-bicyclo[1.1.1]pentan-1-yl)methanone], the IC50 amounted to 4450 nM.

As for `O=C(N1N=CCC1c1ccccc1)C12CC(C1)C2` (centres unmarked) [Example 44, Bicyclo[1.1.1]pentan-1-yl(5-phenyl-4,5-dihydro-1H-pyrazol-1-yl)methanone], the IC50 turned out to be 38 nM. The same measure, in the same setting: the value for `O=C(N1N=CCC1c1ccccc1)C12CC(O)(C1)C2` (centres unmarked) [Example 45, (3-Hydroxybicyclo[1.1.1]pentan-1-yl)(5-phenyl-4,5-dihydro-1H-pyrazol-1-yl)methanone] was 8590 nM; that for `CCOC12CC(C(=O)N3N=CCC3c3ccccc3)(C1)C2` (centres unmarked) [Example 46, (3-Ethoxybicyclo[1.1.1]pentan-1-yl)(5-phenyl-4,5-dihydro-1H-pyrazol-1-yl)methanone] was 157 nM. Still for that read-out and setting: the value for `N#Cc1ccc2c(cnn2CC23CC(C(=O)N4N=CCC4c4cc(F)ccc4F)(C2)C3)c1` (centres unmarked) [Example 53, 1-((3-(5-(2,5-difluorophenyl)-4,5-dihydro-1H-pyrazole-1-carbonyl)-bicyclo[1.1.1]pentan-1-yl)methyl)-1H-indazole-5-carbonitrile] was 24 nM. As to `N#Cc1ccc2cnn(CC34CC(C(=O)N5N=CCC5c5cc(F)cc(F)c5)(C3)C4)c2c1` (centres unmarked) [Example 66, 1-((3-(5-(3,5-difluorophenyl)-4,5-dihydro-1H-pyrazole-1-carbonyl)bicyclo[1.1.1]-pentan-1-yl)methyl)-1H-indazole-6-carbonitrile], the IC50 turned out to be 16 nM. Same read-out and setting: in the case of `Cc1cc(C)n(CC23CC(C(=O)N4N=CCC4c4cc(F)cc(F)c4)(C2)C3)n1` (centres unmarked) [Example 75, (5-(3,5-difluorophenyl)-4,5-dihydro-1H-pyrazol-1-yl)(3-((3,5-dimethyl-1H-pyrazol-1-yl)methyl)bicyclo[1.1.1]-pentan-1-yl)methanone] it was 323 nM. The same measure, in the same setting: in the case of `O=C(Nc1cc(Cl)ncn1)C12CC(C(=O)N3N=CCC3c3cc(F)cc(F)c3)(C1)C2` (centres unmarked) [Example 76, N-(6-chloropyrimidin-4-yl)-3-(5-(3,5-difluorophenyl)-4,5-dihydro-1H-pyrazole-1-carbonyl)bicyclo[1.1.1]-pentane-1-carboxamide] it was 5390 nM; in that of `N#Cc1cccc(NC(=O)C23CC(C(=O)N4N=CCC4c4cc(F)cc(F)c4)(C2)C3)c1` (centres unmarked) [Example 77, N-(3-cyanophenyl)-3-(5-(3,5-difluorophenyl)-4,5-dihydro-1H-pyrazole-1-carbonyl)-bicyclo[1.1.1]pentane-1-carboxamide], 7110 nM; in that of `CNC(=O)C12CC(C(=O)N3N=CCC3c3cc(F)cc(F)c3)(C1)C2` (centres unmarked) [Example 78, 3-(5-(3,5-difluorophenyl)-4,5-dihydro-1H-pyrazole-1-carbonyl)-N-methylbicyclo-[1.1.1]pentane-1-carboxamide], 13000 nM.

Regarding `O=C(N1N=CCC1c1cc(F)cc(F)c1)C12CC(CN3CC(F)(F)C3)(C1)C2` (centres unmarked) [Example 79, (3-((3,3-difluoroazetidin-1-yl)methyl)bicyclo[1.1.1]-pentan-1-yl)(5-(3,5-difluoro-phenyl)-4,5-dihydro-1H-pyrazol-1-yl)methanone], the IC50 is 425 nM.
